For one data set, the system named is yeast alpha-glucosidase. The experiment in a line: Alpha-glucosidase inhibition assay. Format: biochemical. The note with it: for IC50: yeast alpha-glucosidase. From the text:
Evaluation of the inhibitory activity of compounds against yeast alpha-glucosidase followed a previous procedure.[30]

In the next data set the test system is alpha-glucosidase. The experiment in a line: Inhibitory type assay of 1e on alpha-glucosidase (Lineweaver–Burk plots, pNPG substrate). Type of data set: biochemical, yeast. On the procedure: Replacing the imine group in 1a and 1b for the aldehyde group in 1 enhances the activity. […] In contrast, the bromine atoms within a depsidone skeleton (1c, 1d, and 6a) decrease the activity. […] At concentrations of 0, 1.82, 3.64, 7.28, and 14.57 μM of 1e, the activity was evaluated. […] This type was identical to that of parmosidone F.[18]
The mechanisms of inhibition of alpha-glucosidase by 1e were determined by Lineweaver–Burk plots using methods similar to those reported in the literature.[18] Enzyme inhibition due to various concentrations of 1e was evaluated by monitoring the effects of different substrate concentrations. For Lineweaver–Burk double reciprocal plots 1/enzyme velocity (1/V) vs. 1/substrate concentration (1/[S]), the inhibition type was determined using various concentrations of pNPG (1 mM, 2 mM, and 4 mM) as a substrate in the presence of different concentrations of the test compounds (0, 1.82, 3.64, 7.28, and 14.57 μM for 1e). The experiments were carried out in 3 replicates. The mixtures were incubated at 37 °C and the optical density was measured at 405 nm every 1 minutes for 30 minutes with the ELx800 Absorbance Microplate Reader (BioTek Instruments, Inc., Vermont, USA). Optimal concentrations of the tested compounds were chosen based on the IC50 values. […]

For another data set, the system named is Hek293 cells. The experiment in a line: Cytotoxicity assay (MTT, 72 h) on Hek293. Type of data set: cell-based. The note with it: Homo sapiens, read-out: Hek293 IC50. How it is done:
(§1) Table S2. Cytotoxicity of compounds 1-6, 11, 1a-1e, and 6a […]
(§2) The method used followed that reported by Nguyen et al. (2022). Briefly, HepG2 and Hek293 cells in a complete medium containing DMEM (HyClone, Cytiva, USA) and 10% fetal bovine serum (FBS) were seeded into a 96-well plate at 5 × 10^4 cells per well. The cells were then incubated at 37°C with 5% CO2. After culturing for 24 h, the old medium was replaced by diluted compounds (in DMSO), positive control Doxorubicin (DOX, Fesenius Kabi, Germany), and negative control dimethyl sulfoxide (DMSO, Sigma-Aldrich, Germany). After 72 h of treatment, MTT (3-(4,5-Dimethyl-2-thiazolyl)-2,5-diphenyl-2H-tetrazolium bromide) was added into each well of the test plate. The plate was incubated at 37°C with 5% CO2 for another 3 h. DMSO was used to dissolve the crystals from the interaction between MTT and viable cells. The absorbance of samples was read at 570 nm by the ELISA Reader (BioTek, USA). Cell death (% inhibition) was estimated by the following formula:
(§3) % Inhibition = 100 − [100 × (A Sample – A B1)/(ADMSO – A B2)]
(§4) Where, ASample: Absorbance of sample, ADMSO: Absorbance of negative control, AB1: Absorbance of blank of sample, AB2: Absorbance of blank of DMSO. The IC50 value and the inhibitory chart were respectively calculated and built using GraphPad Prism software (version 8.0.1, Insightful Science LLC, […]
(§5) Ref: Nguyen HH, Aree T, Nguyen HT, et al. Diorygmones A-B, two new guaiane-sesquiterpenes from the cultured lichen mycobiont of Diorygma sp. Natural Product Research. Published online February 1,

The next data set has as its system HepG2 cells. Put plainly: Cytotoxicity assay (MTT, 72 h) on HepG2. Particulars: Homo sapiens, read-out: HepG2 IC50. Format: cell-based. On the procedure: as §1, §2, §3, §4, §5
Data set [1] can be described thus: Cytotoxicity assay (MTT, 72 h) on Hek293. Type of data set: cell-based. The note with it: human. On the procedure: as §1, §2, §3, §4, §5
Data set [2] can be described thus: Cytotoxicity assay (MTT, 72 h) on HepG2. The note with it: human. Format: cell-based. On the procedure:
as §1, §2, §3, §4, §5

Each structure is given as a SMILES string. ≈ marks a conversion by molar mass, not a printed value. Where two headings read alike, the source gives them in different places.

Consider `Cc1cc(O)c(C=O)c2c1C(=O)Oc1c(C)c(C(=O)O)c(O)c(Cc3c(O)cc(O)c(Cc4c(O)c(C(=O)O)c(C)c5c4Oc4c(C=O)c(O)cc(C)c4C(=O)O5)c3C)c1O2` [Compound 1e, 6,6′-((4,6-dihydroxy-2-methyl-1,3-phenylene)bis(methylene))bis(4-formyl-3,7-dihydroxy-1,9-dimethyl-11-oxo-11H-dibenzo[b,e][1,4]dioxepine-8-carboxylic acid)], for which, in the data set on yeast alpha-glucosidase (compared with 1), the “alpha-glucosidase inhibition, fold stronger than 1” value was “seven-fold”. Moreover, the IC50 – broadly, the concentration needed to halve the response being measured – was 10.4 ± 0.4 µM on yeast alpha-glucosidase; more than 100 µg/mL in the data set on Hek293 cells (normal cells Hek293, MTT, 72 h, Table S2); more than 100 µg/mL in the data set with HepG2 cells (liver cancer cell line HepG2, MTT, 72 h, Table S2). The inhibition type entry in the data set with alpha-glucosidase (Lineweaver–Burk plots, 0, 1.82, 3.64, 7.28, 14.57 μM of 1e) was “mixed-mode inhibitor”. For the same compound, at alpha-glucosidase (secondary plot, Fig. 4B, read-out: Ki, inhibition constant of binding with the free enzyme), the inhibitory constant (Ki) – broadly, the equilibrium dissociation constant of an inhibitor or competing ligand from its target – is 6.65 ± 0.48 µM.
`COC(=O)[C@]12Oc3ccc(-c4ccc5c(c4O)C(=O)[C@@H]4CC[C@@H](C)[C@H](O)[C@]4(C(=O)OC)O5)c(O)c3C(=O)C1=C(O)C[C@H](C)[C@H]2O` [Compound 11, eumitrin A1]: the IC50 amounted to 130 ± 2 µM against yeast alpha-glucosidase; 37.6 ± 4.3 µg/mL (≈ 60.2 µM) in the data set on Hek293 cells (HEK293, 72 h); 38.8 ± 0.5 µg/mL (≈ 62.1 µM) in the data set with HepG2 cells (HepG2, 72 h). For the same compound, the figures for the IC50 at 72 h in data set [1] and in data set [2] were 60.3 µM and 62.1 µM, respectively.

These data come from publication PMC11475664, “Alpha-glucosidase inhibitory compounds from Vietnamese lichen Usnea baileyi: in vitro and in silico aspects” (RSC Advances, 2024).
